Measurements from patent US10669252B2, “Benzazepine derivative, preparation method, pharmaceutical composition and use thereof” (SHANGHAI DE NOVO PHARMATECH CO., LTD., priority 2016, dated 2020).
pEC50: −log10 of the molar value.

What was measured:
TLR8 = target: T1, TLR8 (Homo sapiens, UniProt Q9NR97); experiment: TLR8 cell based assay (HEK-BLUE-hTLR8, SEAP reporter linked to NF-κB activation); conditions: HEK-BLUE-hTLR8 cells
T1 construct: host or cells: HEK293 (HEK-BLUE-hTLR8)
T1 sequence (Q9NR97 27-1041): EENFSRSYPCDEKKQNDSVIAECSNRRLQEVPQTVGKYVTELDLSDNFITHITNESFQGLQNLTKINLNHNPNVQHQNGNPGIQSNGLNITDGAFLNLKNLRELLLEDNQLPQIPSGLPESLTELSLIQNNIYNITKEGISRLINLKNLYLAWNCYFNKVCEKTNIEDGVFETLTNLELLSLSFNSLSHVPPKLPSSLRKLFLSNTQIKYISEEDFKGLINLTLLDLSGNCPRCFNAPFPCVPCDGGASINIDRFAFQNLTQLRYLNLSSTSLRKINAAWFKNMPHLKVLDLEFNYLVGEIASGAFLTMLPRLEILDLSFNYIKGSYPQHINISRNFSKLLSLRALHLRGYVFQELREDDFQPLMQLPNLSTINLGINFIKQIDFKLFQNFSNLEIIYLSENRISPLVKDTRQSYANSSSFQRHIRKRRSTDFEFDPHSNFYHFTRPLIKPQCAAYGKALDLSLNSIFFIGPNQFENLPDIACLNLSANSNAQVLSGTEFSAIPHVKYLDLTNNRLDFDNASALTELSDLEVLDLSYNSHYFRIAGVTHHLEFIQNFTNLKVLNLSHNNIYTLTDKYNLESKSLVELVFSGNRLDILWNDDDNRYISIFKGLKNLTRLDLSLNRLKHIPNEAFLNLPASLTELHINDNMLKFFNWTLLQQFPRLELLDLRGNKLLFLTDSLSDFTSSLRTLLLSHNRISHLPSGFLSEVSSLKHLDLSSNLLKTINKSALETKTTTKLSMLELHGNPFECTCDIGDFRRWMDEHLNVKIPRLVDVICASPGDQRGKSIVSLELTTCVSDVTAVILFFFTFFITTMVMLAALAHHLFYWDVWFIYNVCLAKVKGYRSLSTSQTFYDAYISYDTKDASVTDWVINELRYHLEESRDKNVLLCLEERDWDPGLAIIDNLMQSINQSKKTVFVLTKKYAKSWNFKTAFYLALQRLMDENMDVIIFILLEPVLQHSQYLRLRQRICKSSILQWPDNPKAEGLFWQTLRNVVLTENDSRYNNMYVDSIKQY
Description: (§1) In this assay, the bioactivity of compound of formula Iw as measured using a cell based assay. The assay was performed in human embryonic kidney cells (HEK293) expressing TLR8 or other TLR family members such as TLR4, TLR7 and TLR9 (for selectivity screens). The activity of specific TLR agonists was assessed using the secretory embryonic alkaline phosphatase (SEAP) reporter gene that is linked to NF-κB activation in response to TLR stimulation. The SEAP activity was measured using the Quanti-Blue substrate (InvivoGen) after TLR agonist treatment.
(§2) The detailed experimental method is as follow:
HEK-BLUE-hTLR8 cell line was purchased from InvivoGen. The cells were cultured in Dulbecco's Modified Eagle's Media containing 4.5 g/L […] (Sigma-Aldrich) and 10% FBS. The cells were cultured at 37° C., 95% humidity and 5% CO2.
Test concentrations of the compounds ranged from 0.5 nM to 15 μM with 10 points. A known TLR8 agonist was added as positive control and 1 μl of DMSO was added as negative control.
(§3) The cells were prepared as follows: The cells were removed from the incubator and growth medium was discarded. The cells were gently rinsed with pre-warmed 10 ml PBS for a T-150 flask. 12 ml pre-warmed growth medium was added, and the cells were detached by tapping the flask. Cell clumps were dissociated by gently pipetting up and down. The cells were counted. Single cell suspension was prepared at 200,000 cells per ml in growth medium and 200 μl of the cell suspension (40,000 cells per well) were immediately added to each well of the plate. The final DMSO concentration of each well was 0.5%.
The cells were cultured and treated with the compounds at 37° C., 5% CO2 for 24 h.
(§4) 20 μL of the supernatant of each well were added to 180 μL of QUANTI-Blue, and the plates were incubated at 37° C. for 1.5 hour. Optical density was measured using a spectrophotometer at 650 nm (OD data). Activivation was calculated by using the equation below: Activivation %=(Compound OD mean value−DMSO OD mean value)/(positive control OD mean value−DMSO OD mean value)×100
(§5) The data were analyzed using the GraphPad to get EC50 values and fitting dose response curves of the compounds.

TLR7 = target: T2, TLR7 (Homo sapiens, UniProt Q9NYK1); experiment: TLR7 cell based assay (HEK-BLUE-hTLR7, SEAP reporter linked to NF-κB activation); conditions: HEK-BLUE-hTLR7 cells, 24 hours treatment, SEAP/QUANTI-Blue readout
T2 construct: host or cells: HEK293 (HEK-BLUE-hTLR7)
T2 sequence (Q9NYK1 27-1049): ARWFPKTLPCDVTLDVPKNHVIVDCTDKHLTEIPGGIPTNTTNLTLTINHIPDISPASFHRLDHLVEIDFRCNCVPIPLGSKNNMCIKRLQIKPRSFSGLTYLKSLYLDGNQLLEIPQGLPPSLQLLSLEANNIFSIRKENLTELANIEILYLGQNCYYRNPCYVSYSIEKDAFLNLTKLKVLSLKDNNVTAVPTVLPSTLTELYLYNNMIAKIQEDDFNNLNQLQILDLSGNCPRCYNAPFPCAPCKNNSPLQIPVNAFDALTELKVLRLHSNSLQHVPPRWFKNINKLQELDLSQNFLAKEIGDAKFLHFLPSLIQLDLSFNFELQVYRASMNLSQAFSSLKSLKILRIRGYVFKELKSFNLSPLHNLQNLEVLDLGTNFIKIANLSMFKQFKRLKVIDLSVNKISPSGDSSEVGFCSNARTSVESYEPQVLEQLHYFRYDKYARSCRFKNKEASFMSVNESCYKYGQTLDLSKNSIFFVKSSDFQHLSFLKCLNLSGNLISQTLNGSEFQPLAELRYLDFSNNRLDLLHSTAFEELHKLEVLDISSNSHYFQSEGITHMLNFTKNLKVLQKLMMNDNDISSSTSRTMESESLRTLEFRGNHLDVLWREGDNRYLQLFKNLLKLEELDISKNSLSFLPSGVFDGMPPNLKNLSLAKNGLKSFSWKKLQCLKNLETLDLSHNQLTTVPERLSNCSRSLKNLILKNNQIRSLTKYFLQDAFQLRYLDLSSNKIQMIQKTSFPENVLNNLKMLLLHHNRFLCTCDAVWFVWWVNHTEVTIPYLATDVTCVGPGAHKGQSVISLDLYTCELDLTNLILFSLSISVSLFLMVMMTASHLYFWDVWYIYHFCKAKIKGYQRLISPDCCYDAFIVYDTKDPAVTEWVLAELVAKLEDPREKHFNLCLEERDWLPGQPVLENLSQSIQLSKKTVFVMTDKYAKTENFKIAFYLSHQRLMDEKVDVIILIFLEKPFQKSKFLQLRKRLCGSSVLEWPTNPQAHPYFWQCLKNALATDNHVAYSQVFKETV
Description: as §1, with “(I) was” for “Iw as”, “TLR7” for “TLR8”, “TLR4,” for “TLR4, TLR7”
as §2
HEK-BLUE-hTLR7 cell line was purchased from InvivoGen. The cells were cultured in Dulbecco's Modified Eagle's Media containing 4.5 g/L […] (Sigma-Aldrich) and 10% FBS. The cells were cultured at 37° C., 95% humidity and 5% CO2.
[…] A known TLR8 agonist was added as positive control and 1 μl of DMSO was added as negative control.
as §3, with “follows.” for “follows:”
The cells were cultured and treated with the compounds at 37° C., 5% CO2 for 24 hours.
as §4, §5

[1] = 24 h treatment, SEAP/QUANTI-Blue readout

Compound	pEC50 (TLR8; [1])	pEC50 (TLR7)	pEC50 (TLR8; bound stated)
CCCN(CCC)C(=O)C1=Cc2ccc(-c3ccc4c(=O)n(CC(N)=O)ccc4c3)cc2N=C(N)C1 [Compound 1-2-10]	> 7.00	< 4.30	
CCCN(CCC)C(=O)C1=Cc2ccc(-c3ccc4c(=O)n(CC(C)(C)O)ccc4c3)cc2N=C(N)C1 [Compound 1-2-13]	> 7.00	< 4.30	
CCCN(CCC)C(=O)C1=Cc2ccc(-c3ccc4c(=O)n(CCOC)ccc4c3)cc2N=C(N)C1 [Compound 1-2-14]	> 7.00	< 4.30	
CCCN(CCC)C(=O)C1=Cc2ccc(-c3ccc4c(=O)n(CC(N)=O)c(C)cc4c3)cc2N=C(N)C1 [Compound 1-2-16]	> 7.00	< 4.30	
CCCN(CCC)C(=O)C1=Cc2ccc(-c3ccc4c(=O)n(CCN)ccc4c3)cc2N=C(N)C1 [Compound 1-2-17]	> 7.00	< 4.30	
CCCN(CCC)C(=O)C1=Cc2ccc(-c3ccc4c(=O)n(CCNC(C)=O)ccc4c3)cc2N=C(N)C1 [Compound 1-2-18]	> 7.00	< 4.30	
CCCN(CCC)C(=O)C1=Cc2ccc(-c3ccc4c(=O)n(CCNS(C)(=O)=O)ccc4c3)cc2N=C(N)C1 [Compound 1-2-19]	> 7.00	< 4.30	
CCCN(CCC)C(=O)C1=Cc2ccc(-c3ccc4c(=O)n(CC(=O)NC)ccc4c3)cc2N=C(N)C1 [Compound 1-2-21]	> 7.00	< 4.30	
CCCN(CCC)C(=O)C1=Cc2ccc(-c3ccc4c(=O)n(CCSC)ccc4c3)cc2N=C(N)C1 [Compound 1-2-22]	> 7.00	< 4.30	
CCCN(CCC)C(=O)C1=Cc2ccc(-c3ccc4c(=O)n(CCS(C)(=O)=O)ccc4c3)cc2N=C(N)C1 [Compound 1-2-23]	> 7.00	< 4.30	
CCCN(CCC)C(=O)C1=Cc2ccc(-c3ccc4c(=O)n(Cc5ncco5)ccc4c3)cc2N=C(N)C1 [Compound 1-2-28]	> 7.00	4.30 to 5.00	
CCCN(CCC)C(=O)C1=Cc2ccc(-c3ccc4c(=O)n(Cc5ncccn5)ccc4c3)cc2N=C(N)C1 [Compound 1-2-31]	> 7.00	4.30 to 5.00	> 8.00
CCCN(CCC)C(=O)C1=Cc2ccc(-c3ccc4c(=O)n(CCn5cccn5)ccc4c3)cc2N=C(N)C1 [Compound 1-2-32]	> 7.00	5.00 to 6.00	
CCCN(CCC)C(=O)C1=Cc2ccc(-c3ccc4c(=O)n(Cc5nccn5C)ccc4c3)cc2N=C(N)C1 [Compound 1-2-33]	> 7.00	< 4.30	
CCCN(CCC)C(=O)C1=Cc2ccc(-c3ccc4c(=O)n(Cc5ccn(C)n5)ccc4c3)cc2N=C(N)C1 [Compound 1-2-35]	> 7.00	< 4.30	
CCCN(CCC)C(=O)C1=Cc2ccc(-c3ccc4c(=O)n(Cc5nncn5C)ccc4c3)cc2N=C(N)C1 [Compound 1-2-36]	> 7.00	4.30 to 5.00	
CCCN(CCC)C(=O)C1=Cc2ccc(-c3ccc4c(=O)n(Cc5nnnn5C)ccc4c3)cc2N=C(N)C1 [Compound 1-2-40]	> 7.00	< 4.30	> 8.00
CCCN(CCC)C(=O)C1=Cc2ccc(-c3ccc4c(=O)n(CCP(=O)(OCC)OCC)ccc4c3)cc2N=C(N)C1 [Compound 1-2-43]	6.00 to 7.00	< 4.30	
CCCN(CCC)C(=O)C1=Cc2ccc(-c3ccc4c(=O)n(CCOP(=O)(OC)OC)ccc4c3)cc2N=C(N)C1 [Compound 1-2-45]	> 7.00	4.30 to 5.00	
CCCN(CCC)C(=O)C1=Cc2ccc(-c3ccc4c(c3)CN(CCO)C4=O)cc2N=C(N)C1 [Compound 1-3-2]	> 7.00	< 4.30	
CCCN(CCC)C(=O)C1=Cc2ccc(-c3ccc4c(c3)CCN(CC(C)(C)O)C4=O)cc2N=C(N)C1 [Compound 1-4-2]	> 7.00	< 4.30	
CCCN(CCC)C(=O)C1=Cc2ccc(-c3ccc4c(c3)CCN(CCO)C4=O)cc2N=C(N)C1 [Compound 1-4-10]	6.00 to 7.00	< 4.30	
CCCN(CCC)C(=O)C1=Cc2ccc(-c3ccc4c(=O)n(CCS(C)(=O)=O)cnc4c3)cc2N=C(N)C1 [Compound 1-7-2]	6.00 to 7.00	< 4.30	
CCCN(CCC)C(=O)C1=Cc2ccc(-c3ccc4c(=O)n(CCO)cnc4c3)cc2N=C(N)C1 [Compound 1-7-4]	> 7.00	< 4.30	
CCCN(CCC)C(=O)C1=Cc2ccc(-c3ccc4c(=O)n(CC(N)=O)ncc4c3)cc2N=C(N)C1 [Compound 1-8-1]	> 7.00	< 4.30	
